Laboratory results published in PMC10758494 (Frontiers in Pharmacology, 2023).
Several values for one entry are separate records, joined by “and”; a condition that tells them apart may be missing. Identical values can stand only once. Like-named read-outs stand apart in the source and are kept apart here. Positions of bridges follow the written chain, without caps; N, C: chain ends. Residues, ends and D or L forms follow the SMILES beside them.

Experiments:
[1] = target: T1, human α7 nAChR (Homo sapiens, UniProt P36544); assay: cell-based; conditions: for inhibition at 500 µM: read-out: Inhibition of PNU282987-evoked response
T1 construct: α7 nAChR endogenously expressed in neuroblastoma SH-SY5Y cells; endogenous in cells; host or cells: SH-SY5Y human neuroblastoma cells

[2] = target: T2, rat α9α10 nAChR (Rattus norvegicus, UniProt P43144+Q9JLB5); assay: cell-based; conditions: for IC50: 500 μM ACh, X. laevis oocytes
T2 construct: expressed in transfected cells; host or cells: Xenopus laevis oocytes injected with cRNA

[3] = target: T3, human α9α10 nAChR (Homo sapiens, UniProt Q9GZZ6+Q9UGM1); set-up: method as in Lebedev et al., 2019; conditions: read-out: IC50 on α9α10 nAChR; 95% CI in brackets; ref Lebedev et al., 2019; cited from earlier work
T3 construct: expressed in transfected cells; host or cells: Xenopus laevis oocytes injected with cRNA

[4] = target: T3, human α9α10 nAChR; assay: Two-electrode voltage clamp, human α9α10 nAChR in X. laevis oocytes; type: cell-based; conditions: IC50, inhibition of ACh-evoked currents (α9α10 nAChR), 500 μM ACh, mean ± SEM
[5] = tested on: SH-SY5Y cells; assay: Calcium imaging, effect of compound alone on [Ca2+]i in SH-SY5Y cells; type: cell-based, human; conditions: 10 μM, without α7 nAChR activation

T1 sequence (P36544 23-502): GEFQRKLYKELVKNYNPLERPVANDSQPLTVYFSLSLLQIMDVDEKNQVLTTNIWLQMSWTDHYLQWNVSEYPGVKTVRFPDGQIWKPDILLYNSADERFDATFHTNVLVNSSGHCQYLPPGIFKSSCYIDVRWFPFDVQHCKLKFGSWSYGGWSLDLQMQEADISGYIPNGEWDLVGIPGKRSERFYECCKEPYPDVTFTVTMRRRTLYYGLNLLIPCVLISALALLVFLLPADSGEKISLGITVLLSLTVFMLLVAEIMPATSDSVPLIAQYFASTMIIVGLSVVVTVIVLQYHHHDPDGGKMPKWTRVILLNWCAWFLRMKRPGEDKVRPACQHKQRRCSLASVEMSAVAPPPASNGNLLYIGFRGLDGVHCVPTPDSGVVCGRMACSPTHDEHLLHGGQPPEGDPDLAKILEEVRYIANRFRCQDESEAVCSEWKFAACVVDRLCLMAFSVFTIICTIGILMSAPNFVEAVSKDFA
T2 sequence (P43144 26-479): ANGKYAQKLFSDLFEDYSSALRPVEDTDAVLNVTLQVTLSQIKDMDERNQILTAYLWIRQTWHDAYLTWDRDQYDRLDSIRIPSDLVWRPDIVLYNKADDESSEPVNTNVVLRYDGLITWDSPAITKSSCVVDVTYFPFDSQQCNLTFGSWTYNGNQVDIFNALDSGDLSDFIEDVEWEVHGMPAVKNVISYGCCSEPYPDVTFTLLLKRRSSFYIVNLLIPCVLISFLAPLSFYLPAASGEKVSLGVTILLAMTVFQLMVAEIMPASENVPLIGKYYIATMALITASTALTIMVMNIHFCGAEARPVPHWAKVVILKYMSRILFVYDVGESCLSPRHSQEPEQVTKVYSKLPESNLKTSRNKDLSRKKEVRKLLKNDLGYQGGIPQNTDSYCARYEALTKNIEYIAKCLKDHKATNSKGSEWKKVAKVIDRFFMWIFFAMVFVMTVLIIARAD
T2 sequence (Q9JLB5 25-447): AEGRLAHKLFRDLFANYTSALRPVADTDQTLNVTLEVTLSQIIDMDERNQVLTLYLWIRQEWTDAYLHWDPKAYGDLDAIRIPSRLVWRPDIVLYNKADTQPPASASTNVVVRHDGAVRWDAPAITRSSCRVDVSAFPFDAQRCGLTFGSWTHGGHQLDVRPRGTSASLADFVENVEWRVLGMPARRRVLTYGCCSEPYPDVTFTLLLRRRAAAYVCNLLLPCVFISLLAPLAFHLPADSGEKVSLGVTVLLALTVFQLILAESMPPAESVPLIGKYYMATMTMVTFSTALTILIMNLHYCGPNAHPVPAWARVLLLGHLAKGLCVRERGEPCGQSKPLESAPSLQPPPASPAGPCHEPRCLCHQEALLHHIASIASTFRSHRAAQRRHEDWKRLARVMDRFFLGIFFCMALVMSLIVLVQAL
T3 sequence (Q9UGM1 26-479 limits assumed): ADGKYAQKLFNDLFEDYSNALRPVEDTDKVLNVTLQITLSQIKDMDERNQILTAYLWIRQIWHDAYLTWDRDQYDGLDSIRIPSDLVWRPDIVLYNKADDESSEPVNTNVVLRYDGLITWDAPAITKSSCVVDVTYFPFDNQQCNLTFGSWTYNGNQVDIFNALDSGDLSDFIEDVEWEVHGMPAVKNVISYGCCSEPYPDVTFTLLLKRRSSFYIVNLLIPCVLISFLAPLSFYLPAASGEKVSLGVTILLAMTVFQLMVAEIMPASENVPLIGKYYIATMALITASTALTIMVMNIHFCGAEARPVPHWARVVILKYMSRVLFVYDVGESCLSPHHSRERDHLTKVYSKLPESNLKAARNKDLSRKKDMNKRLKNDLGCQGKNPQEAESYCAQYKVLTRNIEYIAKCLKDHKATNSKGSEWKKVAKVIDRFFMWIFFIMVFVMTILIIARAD
T3 sequence (Q9GZZ6 25-450): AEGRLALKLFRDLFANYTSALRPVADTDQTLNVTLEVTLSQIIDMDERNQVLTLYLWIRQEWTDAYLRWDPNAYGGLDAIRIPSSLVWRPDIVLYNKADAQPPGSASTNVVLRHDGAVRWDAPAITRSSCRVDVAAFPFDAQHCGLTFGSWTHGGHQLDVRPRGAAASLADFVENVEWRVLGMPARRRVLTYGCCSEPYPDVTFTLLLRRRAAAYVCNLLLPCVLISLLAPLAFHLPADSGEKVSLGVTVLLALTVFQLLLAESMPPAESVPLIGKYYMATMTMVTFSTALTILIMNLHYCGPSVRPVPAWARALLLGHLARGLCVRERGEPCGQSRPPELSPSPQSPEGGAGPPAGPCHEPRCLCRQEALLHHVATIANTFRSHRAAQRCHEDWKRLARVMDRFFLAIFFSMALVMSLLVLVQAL

With `NCCCCN=C(N)N` [Agm, agmatine] the inhibition at 500 µM ([1]; SH-SY5Y) was roughly 20%.

Work on `CC(CN)CNCCCCNCC(C)CN` (racemic) [rac-2,11-Me2Spm] yielded an IC50 ([2]; read-out: IC50, inhibition of rat α9α10 nAChR) of roughly 500000 nM.

For `N=C(N)NCCC[C@H](NC(=O)[C@H](CCCNC(=N)N)NC(=O)[C@H](CCCNC(=N)N)NC(=O)[C@H](CCCNC(=N)N)NC(=O)[C@H](CCCNC(=N)N)NC(=O)[C@H](CCCNC(=N)N)NC(=O)[C@H](CCCNC(=N)N)NC(=O)[C@@H](N)CCCNC(=N)N)C(=O)O` [R8, octa-arginine], the IC50 [1] is given as 14.5 ± 1 nM and the IC50 [3] is given as 44 nM.

In the case of `N=C(N)NCCC[C@@H]1NC(=O)[C@H](CCCNC(=N)N)NC(=O)[C@H](CCCNC(=N)N)NC(=O)[C@H](CCCNC(=N)N)NC(=O)[C@H](CCCNC(=N)N)NC(=O)[C@H](CCCNC(=N)N)NC(=O)[C@H](CCCNC(=N)N)NC(=O)[C@H](CCCNC(=N)N)NC(=O)[C@@H](N)CSSC[C@@H](C(=O)O)NC1=O` [“cyclo”R8] (H-CRRRRRRRRC-OH; disulfide 1-10), the IC50 [4] is reported as ~60 nM and 61.8 nM and the IC50 [1] is reported as 13.3 ± 3 nM.

For α-cobratoxin [CTX], the “Suppression of α7 nAChR activity” value ([1]; compound 5 μM, 200 nM PNU282987, SH-SY5Y cells) was “completely suppressed”.

For `N=C(N)NCCC[C@H](N)C(=O)NCCCNCCCNCCCCCNC(=O)[C@H](CC(N)=O)NC(=O)Cc1ccc(O)cc1O` [AgTx-636, argiotoxin-636], the “[Ca2+]i change caused by the compound alone” value [5] was “noticeable [Ca^2+]i increase”, the inhibition at 10 µM ([1]; SH-SY5Y, read-out: Inhibition of the action of α7 nAChR agonist PNU282987) was no less than 70% and the IC50 ([2]; IC50, inhibition of ACh-evoked currents (rat α9α10 nAChR)) was ~200 nM and 220 nM.

With `NCCCNCCCCNCCCN` [Spm, spermine] the inhibition at 500 µM ([1]; SH-SY5Y) was roughly 20% and the “Inhibition of rat α9α10 nAChR at 500 μM” value [2] was “no inhibition”.
